Laboratory results taken from US11649326B2, “Functional, segregated, charged telodendrimers and nanocarriers and methods of making and using same” (The Research Foundation for the State University of New York, priority 2015, dated 2023).

Test system: HT-29 cells
Assay: Cellular uptake of FITC-BSA by CLSM in HT-29 cells
Assay type: cell-based
Details: 37° C., 3 h, P/T ratio 1/3 by weight
Description: Cellular Uptake of Protein-Loaded Telodendrimer Nanoparticles. Green fluorescent FITC-BSA molecules were used to probe the intracellular trafficking of proteins without and with telodendrimer nanoparticles. HT-29 colon cancer cells were incubated with free FITC-BSA and FITC-BSA-loaded telodendrimer nanoparticles, and were imaged by confocal laser scanning microscopy (CLSM). […] Only a small amount of the FITC-BSA molecules loaded in the nanoparticles of the telodendrimers containing four guanidine groups at a P/T ratio of 1/3 by weight could be delivered to the cellular interiors (green fluorescence in FIG. 6b). […] The poor intracellular protein delivery efficiency of the telodendrimers containing four guanidine groups may restrict their applications for intracellular delivery, however, this endows them with the potential to serve as nanocarriers for systemic delivery of proteins such as insulin. […]
Cellular Uptake. The cellular uptake and intracellular trafficking of the protein-incorporated nanoparticles were determined by fluorescence microscopy. […] The slides were mounted with cover slips and cells were imaged with a […] FV1000 laser scanning confocal fluorescence microscope.

## FITC-BSA: Fluorescein isothiocyanate (FITC) labeled bovine serum albumin, fluorescent model protein
  cellular uptake of FITC-BSA: could hardly enter the cells spontaneously
